# Data as given in patent publication US20260062443A1 (ALEXION PHARMACEUTICALS, INC., priority 2022, published 2026).
# pIC50: −log10 of the molar value.
# Molecular target: T1, Human complement C1s enzyme (Homo sapiens, UniProt P09871)
# T1 sequence (P09871 438-688 limits assumed): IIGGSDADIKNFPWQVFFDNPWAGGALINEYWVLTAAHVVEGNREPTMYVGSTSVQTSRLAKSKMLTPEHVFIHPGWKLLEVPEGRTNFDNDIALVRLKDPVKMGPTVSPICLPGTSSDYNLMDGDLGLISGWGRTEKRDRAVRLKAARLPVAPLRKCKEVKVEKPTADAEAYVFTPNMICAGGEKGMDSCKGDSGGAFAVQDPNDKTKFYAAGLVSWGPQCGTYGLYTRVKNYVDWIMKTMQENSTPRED
# T1 sequence (P09871 16-437 partner limits assumed): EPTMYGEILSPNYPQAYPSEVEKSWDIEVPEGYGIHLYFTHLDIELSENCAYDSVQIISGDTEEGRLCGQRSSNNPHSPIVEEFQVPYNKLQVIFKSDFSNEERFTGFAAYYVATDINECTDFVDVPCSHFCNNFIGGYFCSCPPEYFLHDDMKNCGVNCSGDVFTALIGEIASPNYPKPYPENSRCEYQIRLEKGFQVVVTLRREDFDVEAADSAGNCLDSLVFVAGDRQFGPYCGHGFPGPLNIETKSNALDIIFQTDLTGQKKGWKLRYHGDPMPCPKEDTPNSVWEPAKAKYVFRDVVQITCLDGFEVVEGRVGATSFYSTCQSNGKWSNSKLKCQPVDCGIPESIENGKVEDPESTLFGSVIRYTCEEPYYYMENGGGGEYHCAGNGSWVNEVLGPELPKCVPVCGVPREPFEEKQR
# Assay: Human C1s enzyme assay
# Assay type: biochemical
# Conditions: human complement C1s enzyme 1.16 nM, substrate Z-L-Lys-SBzl 100 μM, 5 min preincubation; read-out: IC50 (Stars), C1s Inhibiting Activity
# Outline: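 IC50 from nonlinear regression of reaction rates versus compound concentration, with rates taken from A405 recorded at 30 s intervals over 30 min after adding 100 μM Z-L-Lys-SBzl plus 100 μM DTNB. Enzyme was human C1s purified from serum, 1.16 nM, given 5 min compound preincubation at room temperature, pH 7.5 Tris/1 M NaCl.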
row,pIC50,Structure (SMILES)
1,< 6.00,"Nc1nc(=O)oc2cc(CNC(=O)[C@@H]3C[C@@H](OC(F)F)CN3C(=O)CNC(=O)c3ccc4c(c3)Oc3ccccc3S4)ccc12 [Compound 248, (2S,4R)-N-((4-amino-2-oxo-2H-benzo[e][1,3]oxazin-7-yl)methyl)-4-(difluoromethoxy)-1-((phenoxathiine-3-carbonyl)glycyl)pyrrolidine-2-carboxamide]"
2,< 6.00,"O=C(NCC(=O)N1C[C@H](OC(F)F)C[C@H]1C(=O)NCc1ccc2ccncc2c1)c1ccc2c(c1)Oc1ccccc1S2 [Compound 249, (2S,4R)-4-(difluoromethoxy)-N-(isoquinolin-7-ylmethyl)-1-((phenoxathiine-3-carbonyl)glycyl)pyrrolidine-2-carboxamide]"
3,< 6.00,"C[C@@]12C[C@@H]1N(C(=O)CNC(=O)c1ccc3c(c1)Oc1ccccc1S3)[C@H](C(=O)NCc1cccc(B(O)O)c1)C2 [Compound 250, (3-(((1S,3S,5S)-5-methyl-2-((phenoxathiine-3-carbonyl)glycyl)-2-azabicyclo[3.1.0]hexane-3-carboxamido)methyl)phenyl) boronic acid]"
4,> 7.00,"C[C@@H](NC(=O)[C@@H]1C[C@@H](OC(F)(F)F)CN1C(=O)CNC(=O)c1ccc2c(c1)Oc1ccccc1S2)c1cc2cnccc2[nH]1 [Compound 251, (2S,4R)-N-((R)-1-(1H-pyrrolo[3,2-c]pyridin-2-yl)ethyl)-1-((phenoxathiine-3-carbonyl)glycyl)-4-(trifluoromethoxy)pyrrolidine-2-carboxamide]"
5,> 7.00,"C[C@@]12C[C@@H]1N(C(=O)CNC(=O)c1cccc(Oc3ccc(F)cc3)c1)[C@H](C(=O)NCc1cc3cnccc3s1)C2 [Compound 252, (1S,3S,5S)-2-((3-(4-fluorophenoxy)benzoyl)glycyl)-5-methyl-N-(thieno[3,2-c]pyridin-2-ylmethyl)-2-azabicyclo[3.1.0]hexane-3-carboxamide]"
6,6.00 to 7.00,"O=C(NCC(=O)N1C[C@H](OC(F)F)C[C@H]1C(=O)NCc1cnc2c(c1)CNC2)c1ccc2c(c1)Oc1ccccc1S2 [Compound 253, (2S,4R)-4-(difluoromethoxy)-N-((6,7-dihydro-5H-pyrrolo[3,4-b]pyridin-3-yl)methyl)-1-((phenoxathiine-3-carbonyl)glycyl)pyrrolidine-2-carboxamide]"
7,> 7.00,"O=C(NCC(=O)N1C[C@H](OC(F)F)C[C@H]1C(=O)NCc1cc2cnccc2s1)c1cccc(Oc2ccc(F)cc2)c1 [Compound 254, (2S,4R)-4-(difluoromethoxy)-1-((3-(4-fluorophenoxy)benzoyl)glycyl)-N-(thieno[3,2-c]pyridin-2-ylmethyl)pyrrolidine-2-carboxamide]"
8,6.00 to 7.00,"O=C(NCC(=O)N1CC2(C[C@H]1C(=O)NCc1cc3cnccc3s1)OCCO2)c1cccc(Oc2ccc(F)cc2)c1 [Compound 255, (S)-7-((3-(4-fluorophenoxy)benzoyl)glycyl)-N-(thieno[3,2-c]pyridin-2-ylmethyl)-1,4-dioxa-7-azaspiro[4.4]nonane-8-carboxamide]"
9,> 7.00,"O=C(NCC(=O)N1CC2(C[C@H]1C(=O)NCc1cc3cnccc3s1)OCCO2)c1cccc(Oc2ccccc2)c1 [Compound 256, (S)-7-((3-phenoxybenzoyl)glycyl)-N-(thieno[3,2-c]pyridin-2-ylmethyl)-1,4-dioxa-7-azaspiro[4.4]nonane-8-carboxamide]"
10,< 6.00,"O=C(NCC(=O)N1C[C@H](OC(F)F)C[C@H]1C(=O)NCc1cnc2c(c1)NCC2)c1ccc2c(c1)Oc1ccccc1S2 [Compound 257, (2S,4R)-4-(difluoromethoxy)-N-((2,3-dihydro-1H-pyrrolo[3,2-b]pyridin-6-yl)methyl)-1-((phenoxathiine-3-carbonyl)glycyl)pyrrolidine-2-carboxamide]"
11,< 6.00,"O=C(NCC(=O)N1C[C@H](OC(F)F)C[C@H]1C(=O)NCc1ccc2[nH]cnc2n1)c1ccc2c(c1)Oc1ccccc1S2 [Compound 258, (2S,4R)-N-((1H-imidazo[4,5-b]pyridin-5-yl)methyl)-4-(difluoromethoxy)-1-((phenoxathiine-3-carbonyl)glycyl)pyrrolidine-2-carboxamide]"
12,> 7.00,"O=C(NCC(=O)N1C[C@H](OC(F)F)C[C@H]1C(=O)NCc1cc2cnccc2[nH]1)c1cccc(Oc2ccc(F)cc2F)c1 [Compound 259, (2S,4R)-N-((1H-pyrrolo[3,2-c]pyridin-2-yl)methyl)-4-(difluoromethoxy)-1-((3-(2,4-difluorophenoxy)benzoyl)glycyl)pyrrolidine-2-carboxamide]"
13,> 7.00,"Cc1ccc(Oc2cccc(C(=O)NCC(=O)N3C[C@H](OC(F)F)C[C@H]3C(=O)NCc3cc4cnccc4[nH]3)c2)c(F)c1 [Compound 260, (2S,4R)-N-((1H-pyrrolo[3,2-c]pyridin-2-yl)methyl)-4-(difluoromethoxy)-1-((3-(2-fluoro-4-methylphenoxy)benzoyl)glycyl) pyrrolidine-2-carboxamide]"
14,> 7.00,"O=C(NCC(=O)N1CC=C[C@H]1C(=O)NCc1cc2cnccc2[nH]1)c1ccc2c(c1)Oc1ccccc1S2 [Compound 261, (S)-N-((1H-pyrrolo[3,2-c]pyridin-2-yl)methyl)-1-((phenoxathiine-3-carbonyl)glycyl)-2,5-dihydro-1H-pyrrole-2-carboxamide]"
15,< 6.00,"O=C(NCC(=O)N1C[C@H](OC(F)F)C[C@H]1C(=O)NCc1cnc2cn[nH]c2c1)c1ccc2c(c1)Oc1ccccc1S2 [Compound 262, (2S,4R)-N-((1H-pyrazolo[4,3-b]pyridin-6-yl)methyl)-4-(difluoromethoxy)-1-((phenoxathiine-3-carbonyl)glycyl)pyrrolidine-2-carboxamide]"
16,< 6.00,"C[C@@]12C[C@@H]1N(C(=O)CNC(=O)c1ccc3c(c1)Oc1ccccc1S3)[C@H](C(=O)NCc1ccc(B(O)O)cc1)C2 [Compound 263, (4-(((1S,3S,5S)-5-methyl-2-((phenoxathiine-3-carbonyl)glycyl)-2-azabicyclo[3.1.0]hexane-3-carboxamido)methyl)phenyl) boronic acid]"
17,< 6.00,"O=C(NCC(=O)N1C[C@H](OC(F)F)C[C@H]1C(=O)NCc1ccc2c(n1)CCN2)c1ccc2c(c1)Oc1ccccc1S2 [Compound 264, (2S,4R)-4-(difluoromethoxy)-N-((2,3-dihydro-1H-pyrrolo[3,2-b]pyridin-5-yl)methyl)-1-((phenoxathiine-3-carbonyl)glycyl)pyrrolidine-2-carboxamide]"
18,< 6.00,"O=C(NCC(=O)N1C[C@H](OC(F)F)C[C@H]1C(=O)NCc1ccc2c(n1)NCC2)c1ccc2c(c1)Oc1ccccc1S2 [Compound 265, (2S,4R)-4-(difluoromethoxy)-N-((2,3-dihydro-1H-pyrrolo[2,3-b]pyridin-6-yl)methyl)-1-((phenoxathiine-3-carbonyl)glycyl)pyrrolidine-2-carboxamide]"
19,> 7.00,"O=C(NCC(=O)N1C[C@H](OC(F)F)C[C@H]1C(=O)NCc1cc2cnccn2c1)c1ccc2c(c1)Oc1ccccc1S2 [Compound 266, (2S,4R)-4-(difluoromethoxy)-1-((phenoxathiine-3-carbonyl)glycyl)-N-(pyrrolo[1,2-a]pyrazin-7-ylmethyl)pyrrolidine-2-carboxamide]"
20,< 6.00,"Cc1nccc2[nH]c(CNC(=O)[C@@H]3C[C@]4(C)C[C@@H]4N3C(=O)CNC(=O)c3ccc4c(c3)Oc3ccccc3S4)cc12 [Compound 267, (1S,3S,5S)-5-methyl-N-((4-methyl-1H-pyrrolo[3,2-c]pyridin-2-yl)methyl)-2-((phenoxathiine-3-carbonyl)glycyl)-2-azabicyclo[3.1.0]hexane-3-carboxamide]"
21,< 6.00,"Cc1cc2[nH]c(CNC(=O)[C@@H]3C[C@]4(C)C[C@@H]4N3C(=O)CNC(=O)c3ccc4c(c3)Oc3ccccc3S4)cc2cn1 [Compound 268, (1S,3S,5S)-5-methyl-N-((6-methyl-1H-pyrrolo[3,2-c]pyridin-2-yl)methyl)-2-((phenoxathiine-3-carbonyl)glycyl)-2-azabicyclo[3.1.0]hexane-3-carboxamide]"
22,> 7.00,"C[C@@]12C[C@@H]1N(C(=O)CNC(=O)c1cccc(Oc3ccc(F)cc3)c1)[C@H](C(=O)NCc1cc3cnccn3c1)C2 [Compound 269, (1S,3S,5S)-2-((3-(4-fluorophenoxy)benzoyl)glycyl)-5-methyl-N-(pyrrolo[1,2-a]pyrazin-7-ylmethyl)-2-azabicyclo[3.1.0]hexane-3-carboxamide]"
23,> 7.00,"O=C(NCC(=O)N1C[C@H](OC(F)F)C[C@H]1C(=O)NCc1cc2cnccn2c1)c1cccc(Oc2ccccc2)c1 [Compound 270, (2S,4R)-4-(difluoromethoxy)-1-((3-phenoxybenzoyl)glycyl)-N-(pyrrolo[1,2-a]pyrazin-7-ylmethyl)pyrrolidine-2-carboxamide]"
24,> 7.00,"C[C@@]12C[C@@H]1N(C(=O)CNC(=O)c1ccc3c(c1)Oc1ccccc1S3)[C@H](C(=O)NCc1cc3cnccn3c1)C2 [Compound 271, (1S,3S,5S)-5-methyl-2-((phenoxathiine-3-carbonyl)glycyl)-N-(pyrrolo[1,2-a]pyrazin-7-ylmethyl)-2-azabicyclo[3.1.0]hexane-3-carboxamide]"
